Measurements published in paper PMC9272937, “Anti-breast cancer sinomenine derivatives via mechanisms of apoptosis induction and metastasis reduction” (Journal of Enzyme Inhibition and Medicinal Chemistry, 2022).

Assays:
[1] = test system: human TNBC cell line MDA-MB-231; assay: CCK-8 antiproliferative assay, MDA-MB-231; type: cell-based; conditions: for IC50: Homo sapiens, MDA-MB-231, 48 h, read-out: IC50 MDA-MB-231; for SI MDA-MB-231 (selectivity index): SI = IC50(MCF-10A)/IC50(MDA-MB-231)
Experimental: (§1) The antiproliferative activities of target compounds were examined by CCK-8 assay in three cancer cells (human lung cancer cell line A549, human mammary gland tumour cell line MCF-7 and human TNBC cell line MDA-MB-231) and one normal cell (human normal breast cell line MCF10A). All cell lines were sourced from KeyGEN Biotech, […], China, and a standard DMEM medium was applied to all cell cultures then subjected to 24 h incubation at 37 °C in a humidified environment with 5% CO2. After that logarithmic growing cells were plated on 96-well plates with 8,000 cells per well in a […] medium for 24 h incubation at 37 °C with 5% CO2. The DMEM medium with bovine serum was removed from each well. Then, prerequisite target compounds and positive controls were added to different cell lines in a predetermined concentration regiment for 48 h culture.

[2] = test system: human normal breast cell line MCF10A; assay: CCK-8 assay, normal cells MCF10A; type: cell-based; conditions: MCF-10A, CCK-8, 48 h, mean ± SD of three experiments
Experimental: as §1

[3] = Griess assay, NO-releasing capacity; conditions: 10^−4 mol/l compound, L-cysteine, 37 °C, 15-180 min
Experimental: The NO-releasing capacity of each target compound was determined by the colorimetric method under the instructions of the manufacturer. Preparation of standard curves of 0, 1.56, 3.13, 6.25, 12.5, 25, 50 and 100 μmol/L nitrite nitrogen series standard solution was prepared. 50 μL to 96-well plate was added respectively and then mixed with 50 μL Griess I and Griess II; the absorption value was measured at 540 nm wavelength. A standard curve was drawn from the obtained data. Compounds were formulated into 10^−4 mol/l with PBS (pH = 7.4) and pharmaceutical DMSO. The newly formulated L-cysteine solution 100 μL ([…]) was added and incubated at 37 °C for 15, 30, 45, 60, 90, 120, 150 and180 min, respectively. Griess I and II recovered to room temperature, 50 μL of compounds 7A–E(a–c) were added respectively into the 96-well plate, and then 50 μL of Griess I and 50 μL of Griess II were added in sequence, with the absorbance tested at 540 nm. The amount of NO released was then calculated according to the standard curve.

[4] = test system: human mammary gland tumour cell line MCF-7; assay: CCK-8 antiproliferative assay, MCF-7; type: cell-based; conditions: for IC50: Homo sapiens, MCF7, 48 h, read-out: IC50 MCF-7; for SI MCF-7 (selectivity index): SI = IC50(MCF-10A)/IC50(MCF-7)
Experimental: as §1

[5] = test system: human lung cancer cell line A549; assay: CCK-8 antiproliferative assay, A549; type: cell-based; conditions: Homo sapiens, A549; CCK-8, 48 h, mean ± SD of three experiments
Experimental: as §1

Compound: COC1=CC2[C@H]3Cc4ccc(OC)c(OC(=O)CCC(=O)OCCCCCOc5no[n+]([O-])c5S(=O)(=O)c5ccccc5)c4[C@@]2(CCN3C)CC1=O (stereo partly drawn) [7Da, 4-((5-((4-(((4bs,9R)-3,7-Dimethoxy-11-methyl-6-oxo-6,8a,9,10-tetrahydro-5H-9,4b-(epiminoethano)phenanthren-4-yl)oxy)-4-oxobutanoyl)oxy)pentyl)oxy)-3-(phenylsulfonyl)-1,2,5-oxadiazole 2-oxide]
- IC50 [1]: 920 ± 10 nM
- SI MDA-MB-231 (selectivity index) [1]: 26.89
- IC50 [2]: 24700 ± 1670 nM
- NO peak releasing [3]: exceeding 40 μmol/L
- IC50 [4]: 1800 ± 110 nM
- SI MCF-7 (selectivity index) [4]: 13.74
- IC50 [5]: 2790 ± 70 nM

Compound: COC1=CC2[C@H]3Cc4ccc(OC)c(OC(=O)c5ccccc5C(=O)OCCCCCOc5no[n+]([O-])c5S(=O)(=O)c5ccccc5)c4[C@@]2(CCN3C)CC1=O (stereo partly drawn) [7Dc, 4-((5-((2-((((4bs,9R)-3,7-Dimethoxy-11-methyl-6-oxo-6,8a,9,10-tetrahydro-5H-9,4b-(epiminoethano)phenanthren-4-yl)oxy)carbonyl)benzoyl)oxy)pentyl)oxy)-3-(phenylsulfonyl)-1,2,5-oxadiazole 2-oxide]
- IC50 [1]: 1880 ± 90 nM
- SI MDA-MB-231 (selectivity index) [1]: 10.56
- IC50 [2]: 19800 ± 1430 nM
- NO peak releasing [3]: exceeding 40 μmol/L
- IC50 [4]: 2180 ± 100 nM
- SI MCF-7 (selectivity index) [4]: 9.11
- IC50 [5]: 1630 ± 50 nM
